Measurements as given in article PMC12914960, “Repurposing a detrimental antibody epitope as targeted therapeutics for sepsis and rheumatoid arthritis” (Military Medical Research, 2026).
Where a SMILES comes first, the peptide text is derived from it.

Key:
[1] = tested on: CLP-induced sepsis in BALB/c mice; experiment: Septic survival after cecal ligation and puncture (CLP); type: in vivo, mouse; settings: i.p.
Experimental: Experimental sepsis was induced in BALB/c mice via CLP as previously described. […] The animals were randomly assigned to the control vehicle (n = 10 or n = 20) or experimental groups (n = 10 or n = 20). P2 (5.0 mg/kg), P2-1 (0.1 mg/kg or 1.0 mg/kg), or tetranectin N-terminal deletion mutant (ΔTN) (1.0 mg/kg) were administered intraperitoneally (i.p.) at the indicated time points, and survival rates were monitored. To elucidate P2-1’s protective mechanisms, a separate group of BALB/c mice (n = 4) underwent CLP and received P2-1 (1.0 mg/kg) at 2 h and 20 h post-CLP. At 24 h post-CLP, the animals were euthanized, blood was collected, and serum cytokines and chemokines were measured via murine cytokine antibody arrays as previously described. More details are presented in Additional file 1: Methods.
For these preclinical studies, animals were random ly assigned to experimental groups and treated with P2, P2-1, or a pCTS-L-neutralizing mAb2 according to the indicated dosing regimens. Outcomes, including septic survival rates, arthritis severity, pain sensitivity, and joint tissue histology scores, were collected under blinded experiment al conditions. The study d esign and sample si zes fo r each exp eriment are d etailed in the figure legends. No data, including outlier values, were excluded. For skewed data, outliers were defined via the interquartile range (IQR) method as any value below Q 1 –(1.5 × IQR) or above Q 3 + (1.5 × IQR). For normally distributed data, outliers were defined via the Z-score method as any value with an absolute Z-score greater than 2 or 3. The primary data are reported in Additional file 4. All the reagent sources are listed in Additional file 1: Table S1 .
Cecal ligation and puncture (CLP) sepsis model […]
screening. c Expression and purification of recombinant full-length human TN (residues 1 – 181) and its N-terminal deletion mutant ( ΔTN, residues 45 – 181). […] Recombinant Δ TN was given intraperitoneally at 24 h and 48 h post-C L P, and animal survival rates were monitored. *P < 0.0 5. […]

[2] = target: T1, Recombinant human HMGB1 (Homo sapiens, UniProt P09429); experiment: SPR binding to immobilized HMGB1 (OpenSPR); settings: 1:1 model
T1 construct: made in house; host or cells: E. coli BL21 (DE3) pLysS (given for the rat HMGB1 preparation)
T1 sequence (P09429 whole entry, looked up): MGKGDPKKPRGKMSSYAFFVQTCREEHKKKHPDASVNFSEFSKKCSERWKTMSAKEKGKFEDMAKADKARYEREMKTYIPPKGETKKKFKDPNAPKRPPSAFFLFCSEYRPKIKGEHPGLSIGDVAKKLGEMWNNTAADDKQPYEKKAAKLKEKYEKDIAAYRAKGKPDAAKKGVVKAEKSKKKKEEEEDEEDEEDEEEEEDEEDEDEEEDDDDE
Experimental: Binding kinetics between HMGB1 and P2-1 were measured via Nicoya Life Science gold nanoparticle-based OpenSPR technology (Kitchener, ON, Canada) as previously described. Recombinant human HMGB1 was immobilized onto a carboxyl sensor chip, and the P2-1 peptide was flowed over the immobilized HMGB1 at various concentrations in HEPES-buffered saline with poloxamer (HBS-P buffer, GE Healthcare, Chicago, IL, USA). The response units were recorded over time, and binding affinity was estimated as the equilibrium dissociation constant KD using Trace Drawer Kinetic Data Analysis v.1.6.1 (Nicoya Life Science). Given the 1:1 stoichiometry of the HMGB1-P2-1 interaction predicted by ClusPro protein-protein docking (Additional file 1: Fig. S2), we applied a 1:1 interaction algorithm to determine the association rate constant (ka), dissociation rate constant (kd), and equilibrium dissociation constant (KD) from three independent experiments (n = 3 technical replicates). […]
interaction between high mobility group box 1 (HMGB1) and P2- 1. SPR plots showing the interaction between immobilized HMGB1 and different concentrations of the P2- 1 analyte. Experimental binding responses (blue, purple, and yellow traces) are shown with their corresponding global fits (black curves) via a 1:1 interaction model. The associated table summarizes the globally fitted kinetic parameters, including the maximum b inding capacity (Bmax), association rat e constant (ka), dissociation rat e con stant (kd), and other goodness-of-fit metrics (Chi2). The relatively low Chi2 value indicated a good fit bet ween
(1 picture or pasted object on this page, not shown here)

`CCCC[C@H](NC(=O)[C@H](Cc1c[nH]cn1)NC(=O)[C@@H](NC(=O)[C@H](CCCCN)NC(=O)[C@@H](N)[C@@H](C)O)C(C)C)C(=O)N[C@@H](CCCCN)C(=O)N[C@@H](CO)C(=O)N[C@@H](Cc1ccccc1)C(=O)N[C@@H](CC(C)C)C(=O)N[C@@H](C)C(=O)N[C@@H](Cc1ccccc1)C(=O)N[C@@H](CCC(N)=O)C(=O)N[C@H](C(=O)N[C@@H](CCCCN)C(=O)N[C@H](C(=O)O)[C@@H](C)O)[C@@H](C)O` [P2-1] (HELM PEPTIDE1{T.K.V.H.[Nle].K.S.F.L.A.F.Q.T.K.T}$$$$V2.0; N-terminus and C-terminus assumed) was tested, and the “septic survival, in words” value ([1]; P2-1 0.1 mg/kg at 2, 20, 28, 44, and 52 h post-CLP) was “conferred significant protection against sepsis”, the “septic survival, in words” value ([1]; P2-1 1.0 mg/kg at 24 h and 48 h post-CLP) was “potent protection against lethal sepsis even with delayed therapeutic administration” and the KD ([2]; Exp 1) was 0.0148 µM. For the same compound, the KD ([2]; Exp 2) was 0.0335 µM and the KD ([2]; Exp 3) was 0.0023 µM.
